According to patent US10512699B2 (Cedars-Sinai Medical Center, priority 2008, dated 2019):

Tests used:
Aβ plaques [1] = target: T1, Aβ plaques (Homo sapiens, UniProt P05067); assay: In vivo labeling of Aβ plaques after systemic curcumin administration, tissues examined afterwards; set-up: species or system mouse
Procedure: Mice were anesthetized and perfused with 4% ice-cold buffered PFA, and a group of mice were not perfused. Their eyes were enucleated and fixed immediately in 4% fresh PFA overnight. For whole mount retinas, the eyes were dissected and the anterior part was removed. The eyecups were soaked for 10 minutes in hyaluronidase (type I-S) (0.07 mg/ml) (Sigma) to liquefy and remove the vitreous residues, than washed for 10 minutes×3 in PBS, and the whole mount retinas were collected. For whole eye sectioning, the eyes were put in 30% sucrose in 4% PFA for 2 hours, than washed for 15 minutes×3 in PBS. The eyes were embedded in O.C.T and frozen slowly on dry ice than sagittal sectioned (7 μm) with cryostat. Brains were collected and fixed immediately in 4% fresh PFA overnight. The brains were put in 30% sucrose (in 4% PFA) gradient. Brains were washed for 15 minutes×3 in PBS, next embedded in O.C.T and frozen slowly on dry ice, then coronal sectioned (30 μm) with cryostat. […] Subsequently, brains and eyes were cryosectioned, or prepared for whole mount retina.

Aβ plaques [2] = target: T1, Aβ plaques; assay: In vivo imaging of the retina in live mice after curcumin injection; set-up: species or system mouse; conditions: single injection 7.5 mg/kg, two hours prior to imaging, excitation 546/15 nm, AD-Tg mice
Procedure: To investigate the feasibility of our approach for noninvasive plaque detection, we conducted an in vivo imaging of the retina in live mice using a modified stereomicroscope (Leica S6E) with a wavelength-controlled light source and a digital camera.
Mice were anaesthetized with Ketamine 100 mg/ml/kg and Xylazine 20 mg/ml/kg. Mouse pupils were dilated to about 2 mm in diameter with 0.5% phenylephrine hydrochloride ophthalmic solution (Bausch & Lomb) combined with 0.5% tropicamide ophthalmic solution (Mydral; Bausch & Lomb). During the imaging process, the mice were positioned on a stage of the stereomicroscope, and the eye was covered with a drop of PBS supplemented with calcium and magnesium, which served as an optical coupling medium between the eye surface and the imaging lens. A modified stereomicroscope (Leica S6E) that was adjusted to visualize fluorescence and scatter signals at higher resolution was used to capture images (exposure time 750 ms. with gain 4). The modified stereomicroscope was assembled to include a Polychrome V (Till Photonics) variable wavelength light source, a MicroFire color digital camera (Optronics), and an additional 6× (double convex) magnifying lens, with a focal length of 10 cm. Images were repeatedly captured at several different angles, in order to visualize a larger field and to eliminate non-specific reflection signals.

Aβ plaques [3] = target: T1, Aβ plaques; assay: Ex vivo curcumin staining of postmortem human whole-mount retinas; assay type: binding
From the text: We also analyzed the human retinas with antibodies directed against human Aβ.
Autopsy eyes from Alzheimer's patients were procured from the Alzheimer's Disease Research Center, Department of Pathology, University of Southern California (Los Angeles, Calif.), under IRB protocols 99491 and 3201. Healthy donor eyes were purchased from National Disease Research Interchange (NDRI, Philadelphia, Pa.). NDRI has a human tissue collection protocol approved by a managerial committee and subject to National Institutes of Health oversight. Diseased and normal eyes were fixed and stored in 10% neutral buffered formalin. In addition, we used two healthy eyes that were frozen without fixation and stored at −80° C. Whole-mount retinas were prepared from the eyes and further studied by immunohistochemisty.
The samples were covered with GVA mounting media (Zymed).

Aβ plaques [4] = target: T1, Aβ plaques; assay: Ex vivo curcumin staining of brain cryosections and retinas of AD-Tg mice; assay type: binding, mouse
Procedure: Brain cryosections (30 μm thick), retina cross sections (cryosections) (7 μm thick) and whole mount retinas were treated with a permeabilization/blocking solution containing 20% horse serum (Invitrogen) and 0.01-0.1% Triton X-100 (Sigma-Aldrich, St. Louis, Mo.). Sections were stained overnight at 4° C. with a specified combination of the following primary Abs in PBS containing 10% blocking solution: mouse anti-Aβ [human amino-acid residues 1-17; clone 6E10 (1:100; Milipore, Temecula, Calif.)]. […]
Micrographs of stained tissues were obtained on an Axio Imager Z1 ApoTome-equipped microscope (with motorized Z-drive) with AxioCam MRm monochrome camera ver. […] Quantitative analysis of Aβ plaque number and area (mm^2) was performed from two wholemounted retinas per mouse (n=4 mice per group). […] Quantitative analysis of Aβ plaque number and area (mm^2) in the brain was determined from three coronal sections (two hemispheres each) per mouse with 450 μm intervals, over an area covering hippocampal and cortical regions. […] Total area and quantitative levels of immunoreactivity were determined using a standardized custom histogram-based threshold technique, and then subjected to particle analysis.

T1 sequence (P05067 672-713 limits assumed): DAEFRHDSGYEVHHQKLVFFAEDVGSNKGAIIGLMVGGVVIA

Affinity for Aβ plaques in vivo (Aβ plaques [1]; mice, intravenous injection): high affinity for Aβ plaques in vivo | Blood-brain barrier crossing (Aβ plaques [1]; mice, intravenous injection): crosses the blood-brain barrier | Blood-retina barrier crossing (Aβ plaques [1]; mice, intravenous injection): also crosses the blood-retina barrier | Visibility of curcumin-labeled plaques in live mouse retina (Aβ plaques [2]): curcumin-labeled plaques were visible | Co-localization of curcumin with anti-human Aβ immunolabeling (Aβ plaques [3]; human AD retinas, curcumin after immunolabeling): confirmed their co-localization | Plaques detected by curcumin in human retinas (Aβ plaques [3]; postmortem AD patient eyes (n=9), after Sudan Black B, none in non-AD eyes): found in all AD patient eyes examined
SMILES: COc1cc(/C=C/C(=O)CC(=O)/C=C/c2ccc(O)c(OC)c2)ccc1O [curcumin, diferuloylmethane]
Detection of labeled plaques following administered curcumin (Aβ plaques [1]; i.v., single or multiple injections, retinas and brains): could be detected in the retinas and brains of AD-Tg mice, but not in the non-Tg (wt) controls | Detection of retinal Aβ plaques (Aβ plaques [1]; systemically at a single dose of 7.5 mg/kg or given orally): effective in detecting retinal Aβ plaques | Curcumin staining of plaques detected by anti-human Aβ antibodies (Aβ plaques [4]; hippocampus of AD-Tg mice, brain cryosections, ex vivo): had an affinity to the same plaques that were detected by antibodies specific to human Aβ | Curcumin labeling of retinal Aβ plaques (Aβ plaques [4]; retinas of AD-Tg mice, whole mount and cross-section, not in non-Tg (wt) mice): presence of Aβ plaques labeled by both curcumin and anti-human AP-antibodies
